Measured values: the NIST ThermoML archive (doi:10.1016/j.jct.2006.03.015)
Numbers after ± are expanded uncertainties.

Test: mn = molality of the nth substance listed, in mol/kg
Details: 101 kPa, Liquid; for apparent molar heat capacity: Flow calorimetry

CC(=O)N[C@@H](CC(N)=O)C(N)=O [(S)-2-acetamidosuccinamide] + O
Details | apparent molar heat capacity [J/K/mol] | mass density [kg/m3]
288.15 K, m1 = 0.0291 | 307.3 ± 27 | 1000.53 ± 0.26
288.15 K, m1 = 0.03172 | 310 ± 25 | 1000.65 ± 0.26
288.15 K, m1 = 0.0368 | 307.6 ± 23 | 1000.9 ± 0.26
288.15 K, m1 = 0.03929 | 308.2 ± 20 | 1001.03 ± 0.26
288.15 K, m1 = 0.04222 | 309.5 ± 19 | 1001.17 ± 0.26
288.15 K, m1 = 0.04651 | 305.7 ± 17 | 1001.38 ± 0.26
288.15 K, m1 = 0.05278 | 306.6 ± 17 | 1001.68 ± 0.26
288.15 K, m1 = 0.05772 | 302.8 ± 14 | 1001.92 ± 0.26
288.15 K, m1 = 0.06036 | 303.7 ± 13 | 1002.04 ± 0.26
288.15 K, m1 = 0.06513 | 306.5 ± 14 | 1002.28 ± 0.27
288.15 K, m1 = 0.07059 | 308 ± 12 | 1002.54 ± 0.27
298.15 K, m1 = 0.02807 | 333.1 ± 28 | 998.384 ± 0.26
298.15 K, m1 = 0.03296 | 329.6 ± 24 | 998.617 ± 0.26
298.15 K, m1 = 0.0381 | 333.3 ± 21 | 998.865 ± 0.26
298.15 K, m1 = 0.04348 | 330.6 ± 18 | 999.124 ± 0.26
298.15 K, m1 = 0.04618 | 330.2 ± 18 | 999.246 ± 0.26
298.15 K, m1 = 0.05136 | 330.7 ± 16 | 999.495 ± 0.26
298.15 K, m1 = 0.05666 | 333.4 ± 19 | 999.741 ± 0.26
298.15 K, m1 = 0.06197 | 330.9 ± 14 | –
298.15 K, m1 = 0.06198 | 333 ± 14 | 999.991 ± 0.26
298.15 K, m1 = 0.06667 | 332.5 ± 12 | 1000.22 ± 0.26
298.15 K, m1 = 0.07247 | 331 ± 11 | 1000.49 ± 0.26
313.15 K, m1 = 0.03215 | 353.5 ± 27 | 993.709 ± 0.28
313.15 K, m1 = 0.03777 | 356 ± 23 | 993.972 ± 0.28
313.15 K, m1 = 0.04273 | 355.6 ± 20 | 994.186 ± 0.28
313.15 K, m1 = 0.04501 | 361.1 ± 19 | 994.291 ± 0.28
313.15 K, m1 = 0.0481 | 358.6 ± 18 | 994.444 ± 0.28
313.15 K, m1 = 0.05166 | 353.7 ± 17 | 994.598 ± 0.28
313.15 K, m1 = 0.05423 | 357.7 ± 18 | 994.726 ± 0.27
313.15 K, m1 = 0.06055 | 358.6 ± 15 | 995.006 ± 0.27
313.15 K, m1 = 0.06612 | 356.4 ± 14 | 995.264 ± 0.27
313.15 K, m1 = 0.07077 | 355.6 ± 14 | 995.471 ± 0.27
313.15 K, m1 = 0.07187 | 357.7 ± 13 | 995.524 ± 0.27
328.15 K, m1 = 0.03205 | 378.3 ± 30 | 987.15 ± 0.3
328.15 K, m1 = 0.03805 | 377.4 ± 25 | 987.418 ± 0.3
328.15 K, m1 = 0.0428 | 373.4 ± 22 | 987.633 ± 0.3
328.15 K, m1 = 0.04683 | 379.4 ± 21 | 987.812 ± 0.3
328.15 K, m1 = 0.05183 | 377.2 ± 22 | 988.042 ± 0.29
328.15 K, m1 = 0.05694 | 380.7 ± 21 | 988.263 ± 0.29
328.15 K, m1 = 0.06115 | 377.1 ± 17 | 988.455 ± 0.29
328.15 K, m1 = 0.06488 | 376.5 ± 15 | 988.623 ± 0.29
328.15 K, m1 = 0.06958 | 380.2 ± 17 | 988.834 ± 0.29
